pIC50: −log10 of the molar value. Calls of active or inactive are those of the source. The rule behind the calls is not given here.
target: T1, Protein farnesyltransferase (Homo sapiens, UniProt P49354+P49356); assay: Inhibition of partially purified human recombinant FTase measured for 15 mins by automated fluorescence based assay; assay type: protein-complex assay; conditions: not given

Row | SMILES | pIC50
1 | O=C(CCN1c2ccccc2Sc2ccccc21)NCc1cn(CC(=O)c2ccc(Cl)cc2)nn1 | 5.11
2 | O=C(CN1c2ccccc2Sc2ccccc21)NCc1cn(CC(=O)c2ccc(Br)cc2)nn1 | 4.61
3 | O=C(CCN1c2ccccc2Sc2ccccc21)OCc1cn(CC(=O)c2ccc(Cl)cc2)nn1 | 5.82
4 | N#Cc1ccc(C(=O)Cn2cc(CNC(=O)CCN3c4ccccc4Sc4ccccc43)nn2)cc1 | 5.28
5 | O=C(CCN1c2ccccc2Sc2ccccc21)OCc1cn(CC(=O)c2ccc(Br)cc2)nn1 | 5.89
6 | O=C(CCN1c2ccccc2Sc2ccccc21)NCc1cn(CC(=O)c2ccc(Br)cc2)nn1 | 5.08

test system: MOLT-4; assay: Growth inhibition of human MOLT4 cells at 10 uM after 48 hrs by sulforhodamine B assay relative to control; assay type: functional; conditions: MOLT-4, 48 h, read-out: GI

Row | SMILES | inhibition of growth at 10 µM [%]
7 | O=C(CCN1c2ccccc2Sc2ccccc21)NCc1cn(CC(=O)c2ccc(Cl)cc2)nn1 | 40
8 | O=C(CN1c2ccccc2Sc2ccccc21)NCc1cn(CC(=O)c2ccc(Br)cc2)nn1 | 42
9 | O=C(CCN1c2ccccc2Sc2ccccc21)NCc1cn(CC(=O)c2ccc(F)cc2)nn1 | 38
10 | O=C(CCN1c2ccccc2Sc2ccccc21)NCc1cn(CC(=O)c2ccc(Br)cc2)nn1 | 34

target: T1, Protein farnesyltransferase; assay: Inhibition of partially purified human recombinant FTase at 100 uM measured for 15 mins by automated fluorescence based assay relative to control; assay type: protein-complex assay; conditions: not given

Row | SMILES | inhibition [%]
11 | O=C(CN1c2ccccc2Sc2ccccc21)NCc1cn(CC(=O)c2ccc(F)cc2)nn1 | 0
12 | COc1ccc(C(=O)Cn2cc(CNC(=O)CCN3c4ccccc4Sc4ccccc43)nn2)cc1 | 29.3
13 | Cc1ccc(C(=O)Cn2cc(CNC(=O)CN3c4ccccc4Sc4ccccc43)nn2)cc1 | 19
14 | O=C(CN1c2ccccc2Sc2ccccc21)OCc1cn(CC(=O)c2ccc(Br)cc2)nn1 | 35.5
15 | O=C(CCN1c2ccccc2Sc2ccccc21)NCc1cn(CC(=O)N2c3ccccc3Sc3ccccc32)nn1 | 0
16 | O=C(CCN1c2ccccc2Sc2ccccc21)NCc1cn(CC(=O)c2ccc(F)cc2)nn1 | 52.6

test system: CCRF-CEM; assay: Growth inhibition of human CCRF-CEM cells at 10 uM after 48 hrs by sulforhodamine B assay relative to control; assay type: functional; conditions: read-out: GI

Row | SMILES | inhibition of growth at 10 µM [%]
17 | O=C(CCN1c2ccccc2Sc2ccccc21)NCc1cn(CC(=O)c2ccc(Cl)cc2)nn1 | 19
18 | O=C(CN1c2ccccc2Sc2ccccc21)NCc1cn(CC(=O)c2ccc(Br)cc2)nn1 | 17
19 | O=C(CCN1c2ccccc2Sc2ccccc21)NCc1cn(CC(=O)c2ccc(F)cc2)nn1 | 20
20 | O=C(CCN1c2ccccc2Sc2ccccc21)NCc1cn(CC(=O)c2ccc(Br)cc2)nn1 | 18

test system: HL-60(TB); assay: Growth inhibition of human HL-60(TB) cells at 10 uM after 48 hrs by sulforhodamine B assay relative to control; assay type: functional; conditions: HL-60, 48 h, read-out: GI

Row | SMILES | inhibition of growth at 10 µM [%]
21 | O=C(CCN1c2ccccc2Sc2ccccc21)NCc1cn(CC(=O)c2ccc(Cl)cc2)nn1 | 68
22 | O=C(CN1c2ccccc2Sc2ccccc21)NCc1cn(CC(=O)c2ccc(Br)cc2)nn1 | 13
23 | O=C(CCN1c2ccccc2Sc2ccccc21)NCc1cn(CC(=O)c2ccc(F)cc2)nn1 | 20
24 | O=C(CCN1c2ccccc2Sc2ccccc21)NCc1cn(CC(=O)c2ccc(Br)cc2)nn1 | 41

test system: RPMI-8226; assay: Growth inhibition of human RPMI8226 cells at 10 uM after 48 hrs by sulforhodamine B assay relative to control; assay type: functional; conditions: RPMI-8226, 48 h, read-out: GI

Row | SMILES | inhibition of growth at 10 µM [%]
25 | O=C(CCN1c2ccccc2Sc2ccccc21)NCc1cn(CC(=O)c2ccc(Cl)cc2)nn1 | 19
26 | O=C(CN1c2ccccc2Sc2ccccc21)NCc1cn(CC(=O)c2ccc(Br)cc2)nn1 | 22
27 | O=C(CCN1c2ccccc2Sc2ccccc21)NCc1cn(CC(=O)c2ccc(F)cc2)nn1 | 3
28 | O=C(CCN1c2ccccc2Sc2ccccc21)NCc1cn(CC(=O)c2ccc(Br)cc2)nn1 | 15

test system: SNB-75; assay: Growth inhibition of human SNB75 cells at 10 uM after 48 hrs by sulforhodamine B assay relative to control; assay type: functional; conditions: SNB-75, 48 h, read-out: GI

Row | SMILES | inhibition of growth at 10 µM [%]
29 | O=C(CCN1c2ccccc2Sc2ccccc21)NCc1cn(CC(=O)c2ccc(Cl)cc2)nn1 | 20
30 | O=C(CN1c2ccccc2Sc2ccccc21)NCc1cn(CC(=O)c2ccc(Br)cc2)nn1 | 18
31 | O=C(CCN1c2ccccc2Sc2ccccc21)NCc1cn(CC(=O)c2ccc(F)cc2)nn1 | 19
32 | O=C(CCN1c2ccccc2Sc2ccccc21)NCc1cn(CC(=O)c2ccc(Br)cc2)nn1 | 18

test system: HCT-15; assay: Growth inhibition of human HCT15 cells at 10 uM after 48 hrs by sulforhodamine B assay relative to control; assay type: functional; conditions: not given

Row | SMILES | growth inhibition (GI)
33 | O=C(CCN1c2ccccc2Sc2ccccc21)NCc1cn(CC(=O)c2ccc(F)cc2)nn1 | inactive

same assay, conditions: HCT-15, 48 h, read-out: GI

Row | SMILES | inhibition of growth at 10 µM [%]
34 | O=C(CCN1c2ccccc2Sc2ccccc21)NCc1cn(CC(=O)c2ccc(Cl)cc2)nn1 | 8
35 | O=C(CN1c2ccccc2Sc2ccccc21)NCc1cn(CC(=O)c2ccc(Br)cc2)nn1 | 16
36 | O=C(CCN1c2ccccc2Sc2ccccc21)NCc1cn(CC(=O)c2ccc(Br)cc2)nn1 | 7

test system: EKVX; assay: Growth inhibition of human EKVX cells at 10 uM after 48 hrs by sulforhodamine B assay relative to control; assay type: functional; conditions: not given

Row | SMILES | growth inhibition (GI)
37 | O=C(CN1c2ccccc2Sc2ccccc21)NCc1cn(CC(=O)c2ccc(Br)cc2)nn1 | inactive

same assay, conditions: read-out: GI

Row | SMILES | inhibition of growth at 10 µM [%]
38 | O=C(CCN1c2ccccc2Sc2ccccc21)NCc1cn(CC(=O)c2ccc(Cl)cc2)nn1 | 30
39 | O=C(CCN1c2ccccc2Sc2ccccc21)NCc1cn(CC(=O)c2ccc(F)cc2)nn1 | 22
40 | O=C(CCN1c2ccccc2Sc2ccccc21)NCc1cn(CC(=O)c2ccc(Br)cc2)nn1 | 24

test system: LOX IMVI; assay: Growth inhibition of human LOXIMVI cells at 10 uM after 48 hrs by sulforhodamine B assay relative to control; assay type: functional; conditions: not given

Row | SMILES | growth inhibition (GI)
41 | O=C(CN1c2ccccc2Sc2ccccc21)NCc1cn(CC(=O)c2ccc(Br)cc2)nn1 | inactive

same assay, conditions: read-out: GI

Row | SMILES | inhibition of growth at 10 µM [%]
42 | O=C(CCN1c2ccccc2Sc2ccccc21)NCc1cn(CC(=O)c2ccc(Cl)cc2)nn1 | 9
43 | O=C(CCN1c2ccccc2Sc2ccccc21)NCc1cn(CC(=O)c2ccc(F)cc2)nn1 | 12
44 | O=C(CCN1c2ccccc2Sc2ccccc21)NCc1cn(CC(=O)c2ccc(Br)cc2)nn1 | 17

test system: SK-MEL-5; assay: Growth inhibition of human SK-MEL-5 cells at 10 uM after 48 hrs by sulforhodamine B assay relative to control; assay type: functional; conditions: SK-MEL-5, 48 h, read-out: GI

Row | SMILES | inhibition of growth at 10 µM [%]
45 | O=C(CCN1c2ccccc2Sc2ccccc21)NCc1cn(CC(=O)c2ccc(Cl)cc2)nn1 | 13
46 | O=C(CN1c2ccccc2Sc2ccccc21)NCc1cn(CC(=O)c2ccc(Br)cc2)nn1 | 5
47 | O=C(CCN1c2ccccc2Sc2ccccc21)NCc1cn(CC(=O)c2ccc(F)cc2)nn1 | 14
48 | O=C(CCN1c2ccccc2Sc2ccccc21)NCc1cn(CC(=O)c2ccc(Br)cc2)nn1 | 24

test system: UACC-62; assay: Growth inhibition of human UACC62 cells at 10 uM after 48 hrs by sulforhodamine B assay relative to control; assay type: functional; conditions: UACC-62, 48 h, read-out: GI

Row | SMILES | inhibition of growth at 10 µM [%]
49 | O=C(CCN1c2ccccc2Sc2ccccc21)NCc1cn(CC(=O)c2ccc(Cl)cc2)nn1 | 26
50 | O=C(CN1c2ccccc2Sc2ccccc21)NCc1cn(CC(=O)c2ccc(Br)cc2)nn1 | 25
51 | O=C(CCN1c2ccccc2Sc2ccccc21)NCc1cn(CC(=O)c2ccc(F)cc2)nn1 | 14
52 | O=C(CCN1c2ccccc2Sc2ccccc21)NCc1cn(CC(=O)c2ccc(Br)cc2)nn1 | 29

test system: OVCAR-8; assay: Growth inhibition of human OVCAR8 cells at 10 uM after 48 hrs by sulforhodamine B assay relative to control; assay type: functional; conditions: not given

Row | SMILES | growth inhibition (GI)
53 | O=C(CCN1c2ccccc2Sc2ccccc21)NCc1cn(CC(=O)c2ccc(F)cc2)nn1 | inactive
54 | O=C(CCN1c2ccccc2Sc2ccccc21)NCc1cn(CC(=O)c2ccc(Br)cc2)nn1 | inactive

same assay, conditions: OVCAR-8, 48 h, read-out: GI

Row | SMILES | inhibition of growth at 10 µM [%]
55 | O=C(CCN1c2ccccc2Sc2ccccc21)NCc1cn(CC(=O)c2ccc(Cl)cc2)nn1 | 17
56 | O=C(CN1c2ccccc2Sc2ccccc21)NCc1cn(CC(=O)c2ccc(Br)cc2)nn1 | 6

test system: UO-31; assay: Growth inhibition of human UO31 cells at 10 uM after 48 hrs by sulforhodamine B assay relative to control; assay type: functional; conditions: UO-31, 48 h, read-out: GI

Row | SMILES | inhibition of growth at 10 µM [%]
57 | O=C(CCN1c2ccccc2Sc2ccccc21)NCc1cn(CC(=O)c2ccc(Cl)cc2)nn1 | 36
58 | O=C(CN1c2ccccc2Sc2ccccc21)NCc1cn(CC(=O)c2ccc(Br)cc2)nn1 | 13
59 | O=C(CCN1c2ccccc2Sc2ccccc21)NCc1cn(CC(=O)c2ccc(F)cc2)nn1 | 18
60 | O=C(CCN1c2ccccc2Sc2ccccc21)NCc1cn(CC(=O)c2ccc(Br)cc2)nn1 | 42

test system: CAKI-1; assay: Growth inhibition of human Caki1 cells at 10 uM after 48 hrs by sulforhodamine B assay relative to control; assay type: functional; conditions: CAKI-1, 48 h, read-out: GI

Row | SMILES | inhibition of growth at 10 µM [%]
61 | O=C(CCN1c2ccccc2Sc2ccccc21)NCc1cn(CC(=O)c2ccc(Cl)cc2)nn1 | 32
62 | O=C(CN1c2ccccc2Sc2ccccc21)NCc1cn(CC(=O)c2ccc(Br)cc2)nn1 | 13
63 | O=C(CCN1c2ccccc2Sc2ccccc21)NCc1cn(CC(=O)c2ccc(F)cc2)nn1 | 17
64 | O=C(CCN1c2ccccc2Sc2ccccc21)NCc1cn(CC(=O)c2ccc(Br)cc2)nn1 | 37

test system: PC-3; assay: Growth inhibition of human PC3 cells at 10 uM after 48 hrs by sulforhodamine B assay relative to control; assay type: functional; conditions: PC-3, 48 h, read-out: GI

Row | SMILES | inhibition of growth at 10 µM [%]
65 | O=C(CCN1c2ccccc2Sc2ccccc21)NCc1cn(CC(=O)c2ccc(Cl)cc2)nn1 | 38
66 | O=C(CCN1c2ccccc2Sc2ccccc21)NCc1cn(CC(=O)c2ccc(F)cc2)nn1 | 26
67 | O=C(CCN1c2ccccc2Sc2ccccc21)NCc1cn(CC(=O)c2ccc(Br)cc2)nn1 | 42

test system: MDA-MB-231; assay: Growth inhibition of human MDA-MB-231 cells at 10 uM after 48 hrs by sulforhodamine B assay relative to control; assay type: functional; conditions: MDA-MB-231, 48 h, read-out: GI

Row | SMILES | inhibition of growth at 10 µM [%]
68 | O=C(CCN1c2ccccc2Sc2ccccc21)NCc1cn(CC(=O)c2ccc(Cl)cc2)nn1 | 4
69 | O=C(CN1c2ccccc2Sc2ccccc21)NCc1cn(CC(=O)c2ccc(Br)cc2)nn1 | 9
70 | O=C(CCN1c2ccccc2Sc2ccccc21)NCc1cn(CC(=O)c2ccc(F)cc2)nn1 | 3
71 | O=C(CCN1c2ccccc2Sc2ccccc21)NCc1cn(CC(=O)c2ccc(Br)cc2)nn1 | 14

test system: T47D; assay: Growth inhibition of human T47D cells at 10 uM after 48 hrs by sulforhodamine B assay relative to control; assay type: functional; conditions: read-out: GI

Row | SMILES | inhibition of growth at 10 µM [%]
72 | O=C(CCN1c2ccccc2Sc2ccccc21)NCc1cn(CC(=O)c2ccc(Cl)cc2)nn1 | 22
73 | O=C(CN1c2ccccc2Sc2ccccc21)NCc1cn(CC(=O)c2ccc(Br)cc2)nn1 | 12
74 | O=C(CCN1c2ccccc2Sc2ccccc21)NCc1cn(CC(=O)c2ccc(F)cc2)nn1 | 7
75 | O=C(CCN1c2ccccc2Sc2ccccc21)NCc1cn(CC(=O)c2ccc(Br)cc2)nn1 | 29

Source: ChEMBL document CHEMBL2046334, “New farnesyltransferase inhibitors in the phenothiazine series” (Bioorg Med Chem Lett, 2012)
